Reference: the SangsterLogP compilation

Legend:
[1] = method code …, from Wiggins, H.; Karcher, A.; Michael Wilson, J.; Robb, I. (2008). Determining Octanol/Water Partitioning Coefficients for Industrial Surfactants. Proc. 15th Annual International Petroleum & Biofuels …
[2] = method code SF-HPLC, from Peips, M.; Sikk, P.; Aaviksaar, A. (1986). Hydrophobic interaction in the active sites of serine proteases from thermoactinomycetes. Org. React., 23(3)261-271.; conditions: pH 2.2
[3] = not given; remark: listed apart in the source
[4] = not given; remark: listed apart in the source
[5] = method code SF-AS, from DOI: 10.1016/0041-008x(67)90079-8
[6] = method code SF-HPLC, from DOI: 10.1016/0378-5173(88)90064-6; conditions: pH 7.4
[7] = method code SF-AS, from DOI: 10.1016/s0020-1693(00)85781-3
[8] = method code SF-AS, from DOI: 10.1248/bpb1978.4.759, PMID: 7320829
[9] = not given; remark: listed apart in the source
[10] = method code SF-AS, from DOI: 10.1584/jpestics.8.69
[11] = method code SF-AS, from PMID: 7149911; conditions: pH 8.9
[12] = not given; remark: listed apart in the source
[13] = method code SF-AS, from Kishida, K.; Otori, T. (1980). A quantitative study on the relationship between transcorneal permeability of drugs and their hydrophobicity. Jpn J Ophthalmol, 24(3)251-259.; conditions: pH 7.4
[14] = not given; remark: listed apart in the source
[15] = method code SF, from DOI: 10.1023/a:1016286026462, PMID: 8570535
[16] = method code SF-AS, from DOI: 10.1016/0304-4165(87)90236-4, PMID: 2889474

CCCCCCCCOCCOCCOCCOCCOCCO
logP [1]: 2.43

CCC(NC(C)=O)C(=O)OC (stereo unspecified)
logD [2]: -0.17

CC(C)NCC(O)c1ccc(NS(C)(=O)=O)cc1 (stereo unspecified)
logP: 0.53

Cn1c(=O)nc(-c2ccccc2)c2cc(C(F)(F)F)ccc21
logP [3]: 2.69

Cn1c(=O)nc(-c2ccccc2)c2cc(F)ccc21
logP [3]: 1.87

O=C(CCCCO[N+](=O)[O-])Oc1ccccc1C(=O)O
logP [4]: 2.21

CCC(=O)C(CC(C)N(C)C)(c1ccccc1)c1ccccc1 (stereo unspecified)
logP: 3.93

Clc1cc(Cl)nc(Cl)c1
logP [5]: 2.68

CN(C)C(=O)COC(=O)c1ccccc1O
logD [6]: 1.21

CC(C)(C)c1ccc2c(c1)COCCOCCOCCOCCOCc1cc(C(C)(C)C)ccc1COCCOCCOCCOCCOC2
logP [7]: 3.32

COC(=O)[C@H](CC(C)C)NC(C)=O
logD [2]: 0.84

O=C1NC(=O)C(c2ccccc2)(c2ccccc2)N1S(=O)(=O)c1ccccc1
logD ([8]; pH 7.0): 1.93

CCCCCCCCCCCCOCCOCCOCCOCCOCCOCCOCCO
logP [1]: 4.59

CCCCCCCCCCCCCCOCCOCCOCCOCCOCCOCCOCCOCCO
logP [1]: 5.65

Brc1cc2oc3cc(Br)c(Br)cc3c2cc1Br
logP [9]: 5.98

COc1ccc(C(c2ccc(OC)cc2)C(F)(F)F)cc1
logP [10]: 4.76

CN(N=O)C(=O)N(C)c1ccccc1
logD [11]: 1.58

Clc1cccc(Cl)n1
logP [5]: 2.15

c1ccc2c(c1)cnc1ccccc12
logP [12]: 3.3

CN(N=O)C(=O)Nc1ccc(F)cc1
logD [11]: 1.88

CCc1ccc(N)cc1
logD [13]: 1.96

O=C1NC(=O)C(c2ccccc2)(c2ccc(O)cc2)N1 (stereo unspecified)
logP [8]: 1.72

c1ccc2c(c1)Cc1cccnc1-2
logP [12]: 2.78

C=CCOc1ccccc1OCC(CNC(C)C)OC(=O)C(C)C (stereo unspecified)
logP [14]: 3.77

CC1(C)NC(=O)NC1=O
logP [8]: -0.48

CCN(CC)C(=O)COC(=O)c1ccccc1O
logD [6]: 1.99

COc1ccc(C(=O)c2ccccc2)c(O)c1
logP [15]: 3.82

C=CCOc1ccccc1OCC(CNC(C)C)OC(=O)CCC (stereo unspecified)
logP [14]: 3.95

COc1ccc(C(c2ccc(OC)cc2)C(C)[N+](=O)[O-])cc1 (stereo unspecified)
logP [10]: 3.87

Cn1c(=O)nc(-c2ccccc2)c2cc(S(C)(=O)=O)ccc21
logP [3]: 0.59

c1cnc2c(c1)cc1ccc3cccc4ccc2c1c34
logP [12]: 5.35

CCC(C(c1ccc(OC)cc1)c1ccc(OC)cc1)[N+](=O)[O-] (stereo unspecified)
logP [10]: 4.45

CCCCC(NC(C)=O)C(=O)O (stereo unspecified)
logD [2]: 0.33

CCOc1ccc(N)cc1
logD [13]: 1.24

CC1=C2[C@@H](C[C@@H](C)[C@@H]3C=CC(=O)[C@@]3(C)[C@H]2O)OC1=O
logP [16]: 1.13

C=C1C(=O)O[C@@H]2C[C@@H](C)[C@@H]3C=CC(=O)[C@@]3(C)[C@@H](OC(=O)CCCC(=O)O[C@H]3[C@@H]4C(=C)C(=O)O[C@@H]4C[C@@H](C)[C@@H]4C=CC(=O)[C@]43C)[C@H]12
logP [16]: 1.37

Cn1c(=O)nc(-c2ccccc2)c2ccc(Cl)cc21
logP [3]: 2.36

Brc1cc2c(cc1Br)Oc1cc(Br)c(Br)cc1O2
logP [9]: 6.5

O=C(CCCCC(CO[N+](=O)[O-])O[N+](=O)[O-])Oc1ccccc1C(=O)O (stereo unspecified)
logP [4]: 2.97

CN(N=O)C(=O)Oc1cccc2ccccc12
logD [11]: 2.85

CCCCOC(=O)c1ccccc1C(=O)OCCCC
logP [15]: 4.39

COc1ccc2c(c1)c(-c1ccccc1)nc(=O)n2C
logP [3]: 1.91

CCN(CC)CCNC(=O)c1ccc(NS(C)(=O)=O)cc1
logP: 1.36

CCCCCCOCCOCCOCCOCCOCCO
logP [1]: 1.24

Cc1ccccc1OCC(O)CNCCOc1ccc(C(N)=O)cc1 (stereo unspecified)
logP: 2.19

Clc1cc2oc3c(Cl)cc(Cl)c(Cl)c3c2c(Cl)c1Cl
logP [9]: 6.82

CCCCCCCCOC(=O)c1ccc(N(C)C)cc1
logP [15]: 5.75

Nc1ccc(Cc2ccc(N)cc2)cc1
logD [13]: 1.62

c1ccc2c(c1)ccc1nc3ccc4ccccc4c3cc12
logP [12]: 5.31

O=C(CCO[N+](=O)[O-])Oc1ccccc1C(=O)O
logP [4]: 1.6

COC(=O)[C@H](Cc1ccc(O)cc1)NC(C)=O
logD [2]: 0.33

CCCCCCCCCCOCCOCCOCCOCCOCCOCCOCCOCCO
logP [1]: 3.09

CC(=O)c1ccc2cc(C(C)C(=O)OCC(=O)N(C)CC(N)=O)ccc2c1 (stereo unspecified)
logD [6]: 1.37

CC1CC2OC(=O)C3(C)C2C(OC3(C)O)C2(C)C(=O)C=CC12 (stereo unspecified)
logP [16]: 0.3

Cc1ccccc1N1C(=O)c2cc(S(N)(=O)=O)c(Cl)cc2NC1C (stereo unspecified)
logP: 1.8

COc1cc(C(C)(C)C)c(O)c(C(C)(C)C)c1
logP [15]: 4.64

c1ccc2c(c1)ccc1nc3c(ccc4ccccc43)cc12
logP [12]: 5.38

CC(C)N(N=O)C(=O)Nc1ccccc1
logD [11]: 2.5

CC(=O)c1ccc2cc(C(C)C(=O)OCC(=O)N(CCO)CCO)ccc2c1 (stereo unspecified)
logD [6]: 1.7

CC(C)(CCC(CO[N+](=O)[O-])O[N+](=O)[O-])C(=O)Oc1ccccc1C(=O)O (stereo unspecified)
logP [4]: 3.33

Cc1ccccc1S(=O)(=O)N1C(=O)NC(=O)C1(c1ccccc1)c1ccccc1
logP [8]: 4

Cn1c(=O)nc(-c2ccccc2)c2cc(Cl)ccc21
logP [3]: 2.38

O=C(CCCCCCO[N+](=O)[O-])Oc1ccccc1C(=O)O
logP [4]: 3.22

Nc1ccc(CCO)cc1
logD [13]: 0.1

COC(=O)[C@H](C)NC(C)=O
logD [2]: -0.57

Clc1cccnc1Cl
logP [5]: 2.11

CCN(N=O)C(=O)Nc1ccccc1
logD [11]: 2.25

COc1ccc(CCN(C)CCCC2(c3ccc(OC)c(OC)c3)S(=O)(=O)CCCS2(=O)=O)cc1OC
logP: 2.6

ClC(Cl)(Cl)C(c1ccccc1)c1ccccc1
logP [10]: 4.87

COc1ccc(C(C[N+](=O)[O-])c2ccc(OC)cc2)cc1
logP [10]: 3.57

CCCCCCC(NC(C)=O)C(=O)OC (stereo unspecified)
logD [2]: 1.7

COc1ccc(C(C)c2ccc(OC)cc2)cc1
logP [10]: 4.52

C[C@@H]1C[C@H]2OC(=O)[C@@H](C)[C@H]2[C@H](O)[C@]2(C)C(=O)C=C[C@@H]12
logP [16]: 0.53

CC(=O)c1ccc2cc(C(C)C(=O)OCC(N)=O)ccc2c1 (stereo unspecified)
logD [6]: 2.06

CC(C)(CO[N+](=O)[O-])C(=O)Oc1ccccc1C(=O)O
logP [4]: 2.32

COc1ccc(OC)c(N)c1
logD [13]: 1.2

CCC1(c2ccccc2)C(=O)NC(=O)N1S(=O)(=O)c1ccccc1 (stereo unspecified)
logP [8]: 2.44

Clc1cncc(Cl)c1
logP [5]: 2.56

CCCCCCCCOCCOCCOCCO
logP [1]: 2.84

Clc1cc2oc3cc(Cl)c(Cl)cc3c2cc1Cl
logP [9]: 5.83

O=C1NC(=O)C(c2ccccc2)(c2ccccc2)N1S(=O)(=O)c1ccc(Cl)cc1
logP [8]: 3.48

Brc1cc2oc3ccc(Br)c(Br)c3c2cc1Br
logP [9]: 6.2

O=C(CCCC(CO[N+](=O)[O-])O[N+](=O)[O-])Oc1ccccc1C(=O)O (stereo unspecified)
logP [4]: 2.62

C=CCOc1ccccc1OCC(CNC(C)C)OC(=O)C(C)(C)C (stereo unspecified)
logP [14]: 3.54

Cc1ccc(C=C2C(=O)[C@]3(C)CCC2C3(C)C)cc1
logP [15]: 5.13

CCN(CC)C(=O)COC(=O)C(C)c1ccc2cc(C(C)=O)ccc2c1 (stereo unspecified)
logD [6]: 3.32

C=CCOc1ccccc1OCC(CNC(C)C)OC(C)=O (stereo unspecified)
logP [14]: 3.82

Clc1cnc(Cl)c(Cl)c1
logP [5]: 3.11

Clc1ccc(Cl)c(Cl)n1
logP [5]: 2.77

c1ccc2nc3ccc4ccccc4c3cc2c1
logP [12]: 4.27

CC(=O)c1ccc(N)cc1
logD [13]: 0.83

C=CCOc1ccccc1OCC(CNC(C)C)OC(=O)CC (stereo unspecified)
logP [14]: 3.76

C=C1C(=O)O[C@@H]2C[C@@H](C)[C@@H]3C=CC(=O)[C@@]3(C)[C@@H](OC(=O)CC(=O)O[C@H]3[C@@H]4C(=C)C(=O)O[C@@H]4C[C@@H](C)[C@@H]4C=CC(=O)[C@]43C)[C@H]12
logP [16]: 1.33

CC(C)c1ccc(C(=O)CC(=O)c2ccccc2)cc1
logP [15]: 6.51

Brc1cc2oc3cc(Br)c(Br)c(Br)c3c2cc1Br
logP [9]: 7.2

Nc1ccc(CO)cc1
logD [13]: -0.22

C=CCOc1ccccc1OCC(CNC(C)C)OC(=O)C1CC1 (stereo unspecified)
logP [14]: 3.01

C=C1C(=O)O[C@@H]2C[C@@H](C)[C@@H]3C4CC(=O)[C@]3(C[C@H]12)[C@@]1(C4)C(=O)O[C@@H]2C[C@@H](C)[C@@H]3C=CC(=O)[C@@]3(C)[C@@H](O)[C@@H]21
logP [16]: 1.66

Brc1cc2oc3c(Br)c(Br)c(Br)cc3c2cc1Br
logP [9]: 7.04

CN(N=O)C(=O)Nc1ccccc1
logD [11]: 1.72

C=CCOc1ccccc1OCC(CNC(C)C)OC(=O)c1ccc([N+](=O)[O-])cc1 (stereo unspecified)
logP [14]: 5.22
